Reference: patent publication US11878986B2, “Poly heterocyclic conjugates and their pharmaceutical uses” (National Health Research Institutes, priority 2020, dated 2024)

Test system: human pancreatic cancer cells (MIA PaCa-2)
Assay: Tumor growth inhibition in subcutaneous xenograft model, MIA PaCa-2
Assay type: in vivo, mouse
Details: s.c. xenograft in athymic nude mice; i.v. 1-5 mg/kg, once/week or twice/week for 1-3 weeks; vs vehicle control, p<0.05; FIG. 1
Method: The efficacy of compounds 2 and 11 in inhibiting the growth of human pancreatic cancer cells (MIA PaCa-2) and the efficacy of compounds 1-4, 23, 25, and 26 in inhibiting the growth of human triple-negative breast cancer cells (HCC1806) were assessed as follows.
Male and female athymic NU-Fox1^nu nude mice (BioLASCO, Taiwan) at age 4-5 weeks were housed in sterilized cages equipped with an air filter and sterile bedding materials at the Laboratory Animal Center of the National Health Research Institutes (NHRI), which is an AAALAC International accredited facility. All the mice were fed with sterilized water and chow ad libitum under 12-hr light/12-hr dark cycle throughout the study. […]
The MIA PaCa-2 and HCC1806 cells were suspended in phenol-red-free culture medium/Matrigel™ (1/1) and implanted subcutaneously (s.c.) into the left flank of the nude mice (1×10^6 cells/flank) via a 1 mL syringe. Tumor dimensions were measured twice a week using a digital caliper and the tumor volume (mm^3) was calculated based on the formula, i.e., volume=(length×width^2)/2.
Tumor-bearing mice were randomized (n=7-8 per group) when the average tumor volume reached approximately 200 mm^3. […] Tumor size and body weight of each animal were measured twice a week. Data was expressed as the mean or mean±standard error of the mean (SEM). […]

SMILES	inhibition of the growth of MIA PaCa-2 (tumor volume)
CCCCCC(=O)Nc1cccc(CN(Cc2cc(CN(Cc3ccccn3)Cc3cccc(NC(=O)CCCCC)n3)cc(OCCCCN(Cc3ccc(-c4ccccc4)cc3)C(=O)COCCOCCOCC(=O)NCc3ccc(CNC(=O)CCSSCCC(=O)N(C)[C@H](C)C(=O)O[C@@H]4CC(=O)N(C)c5cc(cc(OC)c5Cl)C/C(C)=C/C=C/[C@H](OC)[C@]5(O)C[C@@H](OC(=O)N5)[C@H](C)[C@H]5O[C@]54C)cc3)c2)Cc2ccccn2)n1 [Compound 2]	significantly inhibited the growth
CCCCCC(=O)Nc1cccc(CN(Cc2cc(CN(Cc3ccccn3)Cc3cccc(NC(=O)CCCCC)n3)cc(OCCCCNC(=O)COCCOCCOCC(=O)NCc3ccc(CNC(=O)CCSSCCC(=O)N(C)[C@H](C)C(=O)O[C@@H]4CC(=O)N(C)c5cc(cc(OC)c5Cl)C/C(C)=C/C=C/[C@H](OC)[C@]5(O)C[C@H](OC(=O)N5)[C@H](C)C5O[C@@]54C)cc3)c2)Cc2ccccn2)n1 (some centres unmarked) [Compound 11]	significantly inhibited the growth
